Measured values published in patent US20250109118A1, “HETEROCYCLIC COMPOUNDS AS SHP2 INHIBITORS, COMPOSITIONS COMPRISING THE HETEROCYCLIC COMPOUND, AND METHODS OF USE THEREOF” (JS INNOMED HOLDINGS LTD., priority 2021, published 2025).

Tests used:
MiaPaCa-2 cells = test: MiaPaCa-2 Cell proliferation assay in 3D culture (CCK8); type: cell-based; details: Homo sapiens, MIA PaCa-2, 120 h; 3D spheroid culture, 5 days with compound, CCK8 readout
Summary of the method: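 Cells grown as spheroids (2500/well, ultra-low attachment, 10% FBS) for 24 h, then exposed 5 days to ten 3-fold compound dilutions at 0.1% DMSO. Viability by CCK8/WST-8, 1.5 h at 37 °C, absorbance 450 nm; IC50 from triplicates.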

SHP2 (PTPN11/SHP2-FL) = molecular target: T1, SHP2 (PTPN11/SHP2-FL) (Homo sapiens, UniProt Q06124); test: SHP2 biochemical assay (DiFMUP prompt fluorescence); details: 0.5 nM SHP2, 0.35 μM activating peptide, DiFMUP 100 μM; read-out: SHP2 bichemical activity (IC50)
T1 construct: SHP2 (PTPN11/SHP2-FL, RBC produced, no cat #); purchased RBC no cat #
T1 sequence (Q06124 1-593): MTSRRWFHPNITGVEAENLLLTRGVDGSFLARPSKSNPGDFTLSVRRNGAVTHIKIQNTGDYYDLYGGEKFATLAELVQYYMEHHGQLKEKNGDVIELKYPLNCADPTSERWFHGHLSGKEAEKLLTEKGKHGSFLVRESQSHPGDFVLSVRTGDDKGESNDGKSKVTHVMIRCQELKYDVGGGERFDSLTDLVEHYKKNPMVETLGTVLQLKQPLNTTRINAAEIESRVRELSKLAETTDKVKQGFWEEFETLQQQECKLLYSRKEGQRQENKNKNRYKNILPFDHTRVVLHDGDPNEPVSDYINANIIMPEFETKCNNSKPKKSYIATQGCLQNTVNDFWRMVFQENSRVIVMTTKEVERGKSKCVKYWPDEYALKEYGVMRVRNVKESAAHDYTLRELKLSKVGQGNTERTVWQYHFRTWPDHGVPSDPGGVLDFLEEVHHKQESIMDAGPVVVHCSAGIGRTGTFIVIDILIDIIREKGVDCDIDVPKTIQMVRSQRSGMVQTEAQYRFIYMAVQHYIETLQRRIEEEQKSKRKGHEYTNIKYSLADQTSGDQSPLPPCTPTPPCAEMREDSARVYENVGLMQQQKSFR
Protocol: SHP2 is allosterically activated through binding of bis-tyro syiphorphorylated peptides to its Src Homology 2 (SH2) domains. The latter activation step leads to the release of the auto-inhibitory interface of SHP2, which in turn renders the SHP2 PTP active and available for substrate recognition and reaction catalysis. The catalytic activity of SHP2 was monitored using the surrogate substrate DiFMUP in a prompt fluorescence assay format. Specifically, the phosphatase reactions were performed at room temperature in 384-well black polystyrene plate, flat bottom, low flange, non-binding surface (Corning, Cat #3575) using a final reaction volume of 20 μL and the following assay buffer conditions: 60 mM HEPES, pH 7.2, 75 mM NaCl, 75 mM KCl, 1 mM EDTA, 0.01% Brij-35, 5 mM DTT, and 10% DMSO (final). The inhibition of SHP2 from the tested compounds (final concentrations varying from 0.003-100 μM) was monitored using an assay in which 0.5 nM of SHP2 (PTPN11/SHP2-FL, RBC produced, no cat #) was incubated with 0.35 μM of the peptide H2NLN(pY)IDLDLV(dPEG8)LST(pY)ASINFQK-amide. After 20 minutes of incubation at room temperature, the surrogate substrate DiFMUP (6,8-difluoro-7-hydroxy-4-methylcoumarin, Invitrogen, cat #D6567, 100 μM final concentration) was added to the reaction. The fluorescence signal was monitored using a microplate reader (Envision, Perkin-Elmer) using excitation and emission wavelengths of 355 nm and 460 nm, respectively. The inhibitor dose response curves were analyzed using normalized IC50 regression curve fitting with control based normalization.
The IC50 values of for Compounds disclosed are listed in Table 2, A: ≤10 nM; B: >10 nM and ≤100 nM; C: >100 nM and ≤1 uM; and D: >1 μM.

| SMILES | IC50 (MiaPaCa-2 cells) [nM] | IC50 (SHP2 (PTPN11/SHP2-FL)) [nM] |
| --- | --- | --- |
| CC1(CN)CCN(c2cnc(Sc3cccc(S(=O)(=O)NC(=O)c4ccccc4)c3Cl)cn2)CC1 [Example 7, N-((3-((5-(4-(aminomethyl)-4-methylpiperidin-1-yl)pyrazin-2-yl)thio)-2-chlorophenyl)sulfonyl)benzamide] | 500 to 5000 | 10 to 100 |
| CC1(N)CCN(c2cnc(Sc3cccc(S(=O)(=O)NC(=O)c4ccccc4)c3Cl)c(N)n2)CC1 [Example 8, N-((3-((3-amino-5-(4-amino-4-methylpiperidin-1-yl)pyrazin-2-yl)thio)-2-chlorophenyl)sulfonyl)benzamide] | 5000 to 50000 | 10 to 100 |
| CC1(CN)CCN(c2cnc(Sc3cccc(C(=O)NS(=O)(=O)c4ccccc4F)c3Cl)cn2)CC1 [Example 23, 3-((5-(4-(aminomethyl)-4-methylpiperidin-1-yl)pyrazin-2-yl)thio)-2-chloro-N-((2-fluorophenyl)sulfonyl)benzamide] | 500 to 5000 | ≤ 10 |
| CC1(N)CCN(c2cnc(Sc3cccc(NC(=O)NS(=O)(=O)c4ccccc4)c3Cl)cn2)CC1 [Example 1, N-((3-((5-(4-amino-4-methylpiperidin-1-yl)pyrazin-2-yl)thio)-2-chlorophenyl)carbamoyl)benzenesulfonamide] | ≤ 500 | 10 to 100 |
| CC1(N)CCN(c2cnc(Sc3cccc(C(=O)NS(C)(=O)=O)c3Cl)cn2)CC1 [Example 19, 3-((5-(4-amino-4-methylpiperidin-1-yl)pyrazin-2-yl)thio)-2-chloro-N-(methylsulfonyl)benzamide] | 5000 to 50000 | 10 to 100 |
| CC1(CN)CCN(c2cnc(Sc3cccc(C(=O)NS(=O)(=O)c4ccccc4)c3Cl)c(N)n2)CC1 [Example 5, 3-((3-amino-5-(4-(aminomethyl)-4-methylpiperidin-1-yl)pyrazin-2-yl)thio)-2-chloro-N-(phenylsulfonyl)benzamide] | ≤ 500 | ≤ 10 |
| CC1(N)CCN(c2cnc(Sc3cccc(C(=O)NS(=O)(=O)C4CC4)c3Cl)cn2)CC1 [Example 18, 3-((5-(4-amino-4-methylpiperidin-1-yl)pyrazin-2-yl)thio)-2-chloro-N-(cyclopropylsulfonyl)benzamide] | 5000 to 50000 | 10 to 100 |

Second part, the compound after the results:

| IC50 (MiaPaCa-2 cells) [nM] | IC50 (SHP2 (PTPN11/SHP2-FL)) [nM] | SMILES |
| --- | --- | --- |
| ≤ 500 | 10 to 100 | CC1(N)CCN(c2cnc(Sc3cccc(S(=O)(=O)NC(=O)c4ccccc4)c3Cl)cn2)CC1 [Example 33, N-((3-((5-(4-amino-4-methylpiperidin-1-yl)pyrazin-2-yl)thio)-2-chlorophenyl)sulfonyl)benzamide] |
| 500 to 5000 | ≤ 10 | CC1(CN)CCN(c2cnc(Sc3cccc(C(=O)NS(=O)(=O)c4ccccc4F)c3Cl)c(N)n2)CC1 [Example 34, 3-((3-amino-5-(4-(aminomethyl)-4-methylpiperidin-1-yl)pyrazin-2-yl)thio)-2-chloro-N-((2-fluorophenyl)sulfonyl)benzamide] |
| ≤ 500 | ≤ 10 | CC1(CN)CCN(c2cnc(Sc3cccc(NC(=O)NS(=O)(=O)C4CC4)c3Cl)c(N)n2)CC1 [Example 43, N-((3-((3-amino-5-(4-(aminomethyl)-4-methylpiperidin-1-yl)pyrazin-2-yl)thio)-2-chlorophenyl)carbamoyl)cyclopropanesulfonamide] |
| ≤ 500 | ≤ 10 | Nc1nc(N2CCC3(CC2)COC[C@H]3N)cnc1Sc1cccc(C(=O)NS(=O)(=O)c2ccccc2)c1Cl [Example 31, (S)-3-((3-amino-5-(4-amino-2-oxa-8-azaspiro[4.5]decan-8-yl)pyrazin-2-yl)thio)-2-chloro-N-(phenylsulfonyl)benzamide] |
| 5000 to 50000 | 10 to 100 | CC1(CN)CCN(c2cnc(Sc3cccc(C(=O)NS(=O)(=O)c4ccncc4)c3Cl)c(N)n2)CC1 [Example 39, 3-((3-amino-5-(4-(aminomethyl)-4-methylpiperidin-1-yl)pyrazin-2-yl)thio)-2-chloro-N-(pyridin-4-ylsulfonyl)benzamide] |
| 500 to 5000 | ≤ 10 | CC1(CN)CCN(c2cnc(Sc3cccc(C(=O)NS(=O)(=O)c4cccnc4)c3Cl)c(N)n2)CC1 [Example 38, 3-((3-amino-5-(4-(aminomethyl)-4-methylpiperidin-1-yl)pyrazin-2-yl)thio)-2-chloro-N-(pyridin-3-ylsulfonyl)benzamide] |
| 500 to 5000 | ≤ 10 | CC1(CN)CCN(c2cnc(Sc3cccc(C(=O)NS(=O)(=O)C4CCCC4)c3Cl)cn2)CC1 [Example 30, 3-((5-(4-(aminomethyl)-4-methylpiperidin-1-yl)pyrazin-2-yl)thio)-2-chloro-N-(cyclopentylsulfonyl)benzamide] |
| ≤ 500 | ≤ 10 | CC1(CN)CCN(c2cnc(Sc3cccc(C(=O)NS(=O)(=O)C4CC4)c3Cl)cn2)CC1 [Example 25, 3-((5-(4-(aminomethyl)-4-methylpiperidin-1-yl)pyrazin-2-yl)thio)-2-chloro-N-(cyclopropylsulfonyl)benzamide] |
